Reference: ChEMBL document CHEMBL4350989, “Discovery of 2,4-diarylaminopyrimidine derivatives bearing dithiocarbamate moiety as novel FAK inhibitors with antitumor and anti-angiogenesis activities” (Eur J Med Chem, 2019)

Tested on: HCT-116
Assay: Antiproliferative activity against human HCT116 cells overexpressing FAK assessed as reduction in cell viability after 72 hrs by MTS assay
Details: HCT-116, 72 h

Compound	IC50 [nM]
CNC(=O)c1ccccc1Nc1nc(Nc2ccc(N3CCOCC3)cc2OC)ncc1Cl	290 to 460
CNC(=O)c1ccccc1Nc1nc(Nc2ccc(C(=O)N3CCN(C(=S)SCC4CCOCC4)CC3)cc2)ncc1Cl	90
CNC(=O)c1ccccc1Nc1nc(Nc2ccc(C(=O)N3CCN(C(=S)SCc4cccnc4)CC3)cc2)ncc1Cl	30
CNC(=O)c1ccccc1Nc1nc(Nc2ccc(C(=O)N3CCN(C(=S)SCc4ccccc4)CC3)cc2)ncc1Cl	50
CNC(=O)c1ccccc1Nc1nc(Nc2ccc(C(=O)N3CCN(C(=S)SCCc4ccccc4)CC3)cc2)ncc1Cl	3780
CNC(=O)c1ccccc1Nc1nc(Nc2ccc(C(=O)N3CCN(C(=S)SCc4ccccn4)CC3)cc2)ncc1Cl	60

The next lines start with the values.

IC50 [nM]	Compound
50	CNC(=O)c1ccccc1Nc1nc(Nc2ccc(C(=O)N3CCN(C(=S)SCCC4OCCO4)CC3)cc2)ncc1Cl
60	CCOC(=O)C(=O)CSC(=S)N1CCN(C(=O)c2ccc(Nc3ncc(Cl)c(Nc4ccccc4C(=O)NC)n3)cc2)CC1
4690	CCOC(=O)CSC(=S)N1CCN(C(=O)c2ccc(Nc3ncc(Cl)c(Nc4ccccc4C(=O)NC)n3)cc2)CC1
160	CNC(=O)c1ccccc1Nc1nc(Nc2ccc(C(=O)N3CCN(C(=S)SCCN(C)C)CC3)cc2)ncc1OC
4	CNC(=O)c1ccccc1Nc1nc(Nc2ccc(C(=O)N3CCN(C(=S)SCCN(C)C)CC3)cc2)ncc1Cl
30	CNC(=O)c1ccccc1Nc1nc(Nc2ccc(C(=O)N3CCN(C(=S)SCCN(C)C)CC3)cc2)ncc1F
20	CNC(=O)c1ccccc1Nc1nc(Nc2ccc(C(=O)N3CCN(C(=S)SCCO)CC3)cc2)ncc1Cl

Tested on: PC-3
Assay: Antiproliferative activity against human PC3 cells overexpressing FAK assessed as reduction in cell viability after 72 hrs by MTS assay
Details: PC-3, 72 h

Compound	IC50 [nM]
CNC(=O)c1ccccc1Nc1nc(Nc2ccc(N3CCOCC3)cc2OC)ncc1Cl	1210 to 1680
CNC(=O)c1ccccc1Nc1nc(Nc2ccc(C(=O)N3CCN(C(=S)SCC4CCOCC4)CC3)cc2)ncc1Cl	310
CNC(=O)c1ccccc1Nc1nc(Nc2ccc(C(=O)N3CCN(C(=S)SCc4cccnc4)CC3)cc2)ncc1Cl	450
CNC(=O)c1ccccc1Nc1nc(Nc2ccc(C(=O)N3CCN(C(=S)SCc4ccccc4)CC3)cc2)ncc1Cl	17000
CNC(=O)c1ccccc1Nc1nc(Nc2ccc(C(=O)N3CCN(C(=S)SCCc4ccccc4)CC3)cc2)ncc1Cl	> 20000
CNC(=O)c1ccccc1Nc1nc(Nc2ccc(C(=O)N3CCN(C(=S)SCc4ccccn4)CC3)cc2)ncc1Cl	400

Continued, values first:

IC50 [nM]	Compound
690	CNC(=O)c1ccccc1Nc1nc(Nc2ccc(C(=O)N3CCN(C(=S)SCCC4OCCO4)CC3)cc2)ncc1Cl
470	CCOC(=O)C(=O)CSC(=S)N1CCN(C(=O)c2ccc(Nc3ncc(Cl)c(Nc4ccccc4C(=O)NC)n3)cc2)CC1
3530	CCOC(=O)CSC(=S)N1CCN(C(=O)c2ccc(Nc3ncc(Cl)c(Nc4ccccc4C(=O)NC)n3)cc2)CC1
920	CNC(=O)c1ccccc1Nc1nc(Nc2ccc(C(=O)N3CCN(C(=S)SCCN(C)C)CC3)cc2)ncc1OC
90	CNC(=O)c1ccccc1Nc1nc(Nc2ccc(C(=O)N3CCN(C(=S)SCCN(C)C)CC3)cc2)ncc1Cl
360	CNC(=O)c1ccccc1Nc1nc(Nc2ccc(C(=O)N3CCN(C(=S)SCCN(C)C)CC3)cc2)ncc1F
240	CNC(=O)c1ccccc1Nc1nc(Nc2ccc(C(=O)N3CCN(C(=S)SCCO)CC3)cc2)ncc1Cl

Tested on: U-87 MG
Assay: Antiproliferative activity against human U87MG cells overexpressing FAK assessed as reduction in cell viability after 72 hrs by MTS assay
Details: not given

Compound	IC50 [nM]
CNC(=O)c1ccccc1Nc1nc(Nc2ccc(N3CCOCC3)cc2OC)ncc1Cl	1580 to 1660
CNC(=O)c1ccccc1Nc1nc(Nc2ccc(C(=O)N3CCN(C(=S)SCC4CCOCC4)CC3)cc2)ncc1Cl	> 20000
CNC(=O)c1ccccc1Nc1nc(Nc2ccc(C(=O)N3CCN(C(=S)SCc4cccnc4)CC3)cc2)ncc1Cl	1530
CNC(=O)c1ccccc1Nc1nc(Nc2ccc(C(=O)N3CCN(C(=S)SCc4ccccc4)CC3)cc2)ncc1Cl	3360
CNC(=O)c1ccccc1Nc1nc(Nc2ccc(C(=O)N3CCN(C(=S)SCCc4ccccc4)CC3)cc2)ncc1Cl	> 20000
CNC(=O)c1ccccc1Nc1nc(Nc2ccc(C(=O)N3CCN(C(=S)SCc4ccccn4)CC3)cc2)ncc1Cl	2530

More lines, now with the values ahead:

IC50 [nM]	Compound
2740	CNC(=O)c1ccccc1Nc1nc(Nc2ccc(C(=O)N3CCN(C(=S)SCCC4OCCO4)CC3)cc2)ncc1Cl
1160	CCOC(=O)C(=O)CSC(=S)N1CCN(C(=O)c2ccc(Nc3ncc(Cl)c(Nc4ccccc4C(=O)NC)n3)cc2)CC1
7540	CCOC(=O)CSC(=S)N1CCN(C(=O)c2ccc(Nc3ncc(Cl)c(Nc4ccccc4C(=O)NC)n3)cc2)CC1
1610	CNC(=O)c1ccccc1Nc1nc(Nc2ccc(C(=O)N3CCN(C(=S)SCCN(C)C)CC3)cc2)ncc1OC
200 to 360	CNC(=O)c1ccccc1Nc1nc(Nc2ccc(C(=O)N3CCN(C(=S)SCCN(C)C)CC3)cc2)ncc1Cl
690	CNC(=O)c1ccccc1Nc1nc(Nc2ccc(C(=O)N3CCN(C(=S)SCCN(C)C)CC3)cc2)ncc1F
710	CNC(=O)c1ccccc1Nc1nc(Nc2ccc(C(=O)N3CCN(C(=S)SCCO)CC3)cc2)ncc1Cl

Tested on: MCF7
Assay: Antiproliferative activity against human MCF7 cells overexpressing FAK assessed as reduction in cell viability after 72 hrs by MTS assay
Details: MCF7, 72 h

Compound	IC50 [nM]
CNC(=O)c1ccccc1Nc1nc(Nc2ccc(N3CCOCC3)cc2OC)ncc1Cl	450 to 560
CNC(=O)c1ccccc1Nc1nc(Nc2ccc(C(=O)N3CCN(C(=S)SCC4CCOCC4)CC3)cc2)ncc1Cl	540
CNC(=O)c1ccccc1Nc1nc(Nc2ccc(C(=O)N3CCN(C(=S)SCc4cccnc4)CC3)cc2)ncc1Cl	390
CNC(=O)c1ccccc1Nc1nc(Nc2ccc(C(=O)N3CCN(C(=S)SCc4ccccc4)CC3)cc2)ncc1Cl	> 20000
CNC(=O)c1ccccc1Nc1nc(Nc2ccc(C(=O)N3CCN(C(=S)SCCc4ccccc4)CC3)cc2)ncc1Cl	11700
CNC(=O)c1ccccc1Nc1nc(Nc2ccc(C(=O)N3CCN(C(=S)SCc4ccccn4)CC3)cc2)ncc1Cl	390

Results, then the molecule that gave them:

IC50 [nM]	Compound
210	CNC(=O)c1ccccc1Nc1nc(Nc2ccc(C(=O)N3CCN(C(=S)SCCC4OCCO4)CC3)cc2)ncc1Cl
520	CCOC(=O)C(=O)CSC(=S)N1CCN(C(=O)c2ccc(Nc3ncc(Cl)c(Nc4ccccc4C(=O)NC)n3)cc2)CC1
9930	CCOC(=O)CSC(=S)N1CCN(C(=O)c2ccc(Nc3ncc(Cl)c(Nc4ccccc4C(=O)NC)n3)cc2)CC1
360	CNC(=O)c1ccccc1Nc1nc(Nc2ccc(C(=O)N3CCN(C(=S)SCCN(C)C)CC3)cc2)ncc1OC
80 to 90	CNC(=O)c1ccccc1Nc1nc(Nc2ccc(C(=O)N3CCN(C(=S)SCCN(C)C)CC3)cc2)ncc1Cl
160	CNC(=O)c1ccccc1Nc1nc(Nc2ccc(C(=O)N3CCN(C(=S)SCCN(C)C)CC3)cc2)ncc1F
110	CNC(=O)c1ccccc1Nc1nc(Nc2ccc(C(=O)N3CCN(C(=S)SCCO)CC3)cc2)ncc1Cl

Tested on: MCF-10A
Assay: Cytotoxicity against human MCF10A cells assessed as reduction in cell viability after 72 hrs by MTS assay
Details: not given

Compound	IC50 [nM]
CNC(=O)c1ccccc1Nc1nc(Nc2ccc(N3CCOCC3)cc2OC)ncc1Cl	8760
CNC(=O)c1ccccc1Nc1nc(Nc2ccc(C(=O)N3CCN(C(=S)SCCN(C)C)CC3)cc2)ncc1OC	2430
CNC(=O)c1ccccc1Nc1nc(Nc2ccc(C(=O)N3CCN(C(=S)SCCN(C)C)CC3)cc2)ncc1Cl	720
CNC(=O)c1ccccc1Nc1nc(Nc2ccc(C(=O)N3CCN(C(=S)SCCN(C)C)CC3)cc2)ncc1F	1750
